Assay results from PubChem BioAssay AID248 (DTP/NCI, 2004).
Several values for one entry are separate records, joined by “and”; a condition that tells them apart may be missing. Equal values may be shown once. Inconclusive results and toxic doses are left out. Rule as the data show it: active = T/C of 150% or more; inactive = T/C below 125%.

Test system: L1210 leukemia ip in BDF1 mice, survival T/C
Test: NCI In Vivo Anticancer Drug Screen. Data for tumor model L1210 Leukemia (intraperitoneal) in B6D2F1 (BDF1) mice
Conditions: endpoint: mean survival time, higher = longer survival
Procedure, shortened: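 Transplantable tumor model; survival measured in treated vs vehicle control mice. Value = treated/control.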

[1] = dose: 100.0 mg/kg/injection, schedule: Q01DX009 (ip), vehicle: Klucel (hydroxypropylcellulose) (HPC)
[2] = dose: 100.0 mg/kg/injection, schedule: Q04DX002 (ip), vehicle: Klucel (hydroxypropylcellulose) (HPC)
[3] = dose: 100.0 mg/kg/injection, schedule: Q04DX003 (ip), vehicle: Klucel (hydroxypropylcellulose) (HPC)
[4] = dose: 200.0 mg/kg/injection, schedule: Q01DX009 (ip), vehicle: Klucel (hydroxypropylcellulose) (HPC)
[5] = dose: 200.0 mg/kg/injection, schedule: Q04DX002 (ip), vehicle: Klucel (hydroxypropylcellulose) (HPC)
[6] = dose: 200.0 mg/kg/injection, schedule: Q04DX003 (ip), vehicle: Klucel (hydroxypropylcellulose) (HPC)
[7] = dose: 400.0 mg/kg/injection, schedule: Q01DX009 (ip), vehicle: Klucel (hydroxypropylcellulose) (HPC)
[8] = dose: 100.0 mg/kg/injection, schedule: Q01DX001 (ip), vehicle: saline with Tween-80
[9] = dose: 100.0 mg/kg/injection, schedule: Q01DX009 (ip), vehicle: saline with Tween-80
[10] = dose: 100.0 mg/kg/injection, schedule: Q04DX003 (ip), vehicle: saline with Tween-80
[11] = dose: 200.0 mg/kg/injection, schedule: Q01DX001 (ip), vehicle: saline with Tween-80
[12] = dose: 200.0 mg/kg/injection, schedule: Q01DX009 (ip), vehicle: saline with Tween-80
[13] = dose: 400.0 mg/kg/injection, schedule: Q01DX001 (ip), vehicle: saline with Tween-80
[14] = dose: 400.0 mg/kg/injection, schedule: Q01DX009 (ip), vehicle: saline with Tween-80
[15] = dose: 100.0 mg/kg/injection, schedule: Q04DX002 (ip), vehicle: saline with Tween-80
[16] = dose: 200.0 mg/kg/injection, schedule: Q04DX002 (ip), vehicle: saline with Tween-80
[17] = dose: 200.0 mg/kg/injection, schedule: Q04DX003 (ip), vehicle: saline with Tween-80
[18] = dose: 400.0 mg/kg/injection, schedule: Q04DX002 (ip), vehicle: saline with Tween-80
[19] = dose: 100.0 mg/kg/injection, schedule: Q01DX001 (ip), vehicle: saline
[20] = dose: 200.0 mg/kg/injection, schedule: Q01DX001 (ip), vehicle: saline
[21] = dose: 400.0 mg/kg/injection, schedule: Q01DX001 (ip), vehicle: saline

Measured: T/C

CCOc1ccc(/C=N/NC(=O)c2ccccc2NC(=O)c2ccccc2Cl)cc1OC
inactive: dose: 100.0 mg/kg/injection, schedule: Q01DX001 (ip), vehicle: Klucel (hydroxypropylcellulose) (HPC) 93 % of control | [1] 97 % of control and 90 % of control | [2] 95 % of control and 103 % of control | [3] 92 % of control | dose: 200.0 mg/kg/injection, schedule: Q01DX001 (ip), vehicle: Klucel (hydroxypropylcellulose) (HPC) 98 % of control | [4] 90 % of control and 91 % of control | [5] 108 % of control and 92 % of control | [6] 97 % of control | dose: 400.0 mg/kg/injection, schedule: Q01DX001 (ip), vehicle: Klucel (hydroxypropylcellulose) (HPC) 93 % of control | [7] 94 % of control and 88 % of control | dose: 400.0 mg/kg/injection, schedule: Q04DX002 (ip), vehicle: Klucel (hydroxypropylcellulose) (HPC) 97 % of control and 92 % of control | dose: 400.0 mg/kg/injection, schedule: Q04DX003 (ip), vehicle: Klucel (hydroxypropylcellulose) (HPC) 92 % of control

CCC(O)CC(=O)O (centres undefined) (tested in a mixture with another compound)
inactive: dose: 25.0 mg/kg/injection, schedule: Q04DX002 (ip), vehicle: Klucel (hydroxypropylcellulose) (HPC) 104 % of control | dose: 50.0 mg/kg/injection, schedule: Q04DX002 (ip), vehicle: Klucel (hydroxypropylcellulose) (HPC) 101 % of control | [2] 101 % of control

c1ccc(CNc2cccc3c(NCc4ccccc4)cccc23)cc1
inactive: [8] 87 % of control | [9] 86 % of control | [10] 88 % of control | [11] 95 % of control | [12] 93 % of control | [13] 88 % of control | [14] 95 % of control

CCC(O)(c1ccccc1)c1cnc(C)n1Cc1ccccc1 (centres undefined)
inactive: [8] 100 % of control and 108 % of control | [2] 102 % of control | [15] 93 % of control and 105 % of control | [10] 101 % of control | [11] 107 % of control and 91 % of control | [5] 112 % of control | [16] 88 % of control and 91 % of control | [17] 100 % of control | [18] 88 % of control and 90 % of control

OCCSc1ncc2cnccn12
inactive: dose: 100.0 mg/kg/injection, schedule: Q01DX009 (ip), vehicle: water 98 % of control | dose: 100.0 mg/kg/injection, schedule: Q04DX003 (ip), vehicle: water 101 % of control | dose: 200.0 mg/kg/injection, schedule: Q01DX009 (ip), vehicle: water 96 % of control | dose: 200.0 mg/kg/injection, schedule: Q04DX003 (ip), vehicle: water 93 % of control | dose: 400.0 mg/kg/injection, schedule: Q01DX009 (ip), vehicle: water 102 % of control | dose: 400.0 mg/kg/injection, schedule: Q04DX003 (ip), vehicle: water 95 % of control

Cc1ccc2cccc(CC(=O)O)c2c1
inactive: dose: 100.0 mg/kg/injection, schedule: Q01DX005 (ip), vehicle: saline with Tween-80 104 % of control | [9] 96 % of control | dose: 200.0 mg/kg/injection, schedule: Q01DX005 (ip), vehicle: saline with Tween-80 112 % of control | [12] 96 % of control | dose: 400.0 mg/kg/injection, schedule: Q01DX005 (ip), vehicle: saline with Tween-80 108 % of control | [14] 115 % of control

C(Cc1ccccc1)=Nc1ccc(N=CCc2ccccc2)cc1
inactive: [19] 103 % of control | [20] 112 % of control | [21] 110 % of control

COc1cc2ccc3c(c2cc1OC)CCc1cnoc1-3
inactive: [10] 95 % of control | [17] 98 % of control | dose: 400.0 mg/kg/injection, schedule: Q04DX003 (ip), vehicle: saline with Tween-80 98 % of control

CCCc1ccc(O)c(O)c1
inactive: dose: 20.0 mg/kg/injection, schedule: Q01DX001 (ip), vehicle: saline 103 % of control | dose: 20.0 mg/kg/injection, schedule: Q01DX009 (ip), vehicle: saline 105 % of control | dose: 40.0 mg/kg/injection, schedule: Q01DX001 (ip), vehicle: saline 96 % of control | dose: 40.0 mg/kg/injection, schedule: Q01DX009 (ip), vehicle: saline 93 % of control | dose: 80.0 mg/kg/injection, schedule: Q01DX001 (ip), vehicle: saline 92 % of control

CCCCCCCCN1C(=O)c2ccccc2S1(=O)=O
inactive: dose: 222.0 mg/kg/injection, schedule: Q01DX Z (ip), vehicle: saline 105 % of control | dose: 333.0 mg/kg/injection, schedule: Q01DX Z (ip), vehicle: saline 100 % of control | dose: 500.0 mg/kg/injection, schedule: Q01DX Z (ip), vehicle: saline 113 % of control

O=C(CCCC(=O)N/N=C/c1ccc(Cl)c([N+](=O)[O-])c1)N/N=C\c1ccc(Cl)c([N+](=O)[O-])c1
inactive: dose: 50.0 mg/kg/injection, schedule: Q01DX001 (ip), vehicle: saline 96 % of control | [19] 102 % of control | [20] 96 % of control | [21] 98 % of control

O=C(O)C1C2CCC1C(O)C2 (centres undefined)
inactive: [8] 107 % of control | [11] 94 % of control | [13] 97 % of control

COc1cccc(NC2=CC(=O)C(=O)c3ccccc32)c1
inactive: dose: 100.0 mg/kg/injection, schedule: Q01DX001 (ip), vehicle: other 88 % of control | dose: 200.0 mg/kg/injection, schedule: Q01DX001 (ip), vehicle: other 92 % of control | dose: 400.0 mg/kg/injection, schedule: Q01DX001 (ip), vehicle: other 101 % of control

Cc1ccc(Nc2nc(N)nc(N)c2N=O)cc1
inactive: dose: 25.0 mg/kg/injection, schedule: Q01DX Z (ip), vehicle: methylcellulose (MC) 101 % of control | dose: 50.0 mg/kg/injection, schedule: Q01DX Z (ip), vehicle: methylcellulose (MC) 90 % of control

CCOC(=O)c1ccc(NC(=S)NC(=O)C(C)Oc2ccccc2)cc1 (centres undefined)
inactive: [8] 102 % of control | [9] 92 % of control and 103 % of control | [15] 93 % of control and 106 % of control | [10] 93 % of control | [11] 94 % of control | [12] 99 % of control and 112 % of control | [16] 93 % of control and 106 % of control | [17] 93 % of control | [13] 108 % of control | [14] 97 % of control and 100 % of control | [18] 92 % of control and 93 % of control

CN(CCCl)Cc1ccc(-c2c3ccccc3cc3c2ccc2ccccc23)cc1
inactive: dose: 25.0 mg/kg/injection, schedule: Q01DX001 (ip), vehicle: carboxymethylcellulose (CMC) 97 % of control | dose: 50.0 mg/kg/injection, schedule: Q01DX001 (ip), vehicle: carboxymethylcellulose (CMC) 89 % of control | dose: 100.0 mg/kg/injection, schedule: Q01DX001 (ip), vehicle: carboxymethylcellulose (CMC) 92 % of control

OC1CCCC2CCC[N-]C12.OC1CCCC2CCC[N-]C12.[Mn+2] (centres undefined)
inactive: dose: 50.0 mg/kg/injection, schedule: Q04DX003 (ip), vehicle: Klucel (hydroxypropylcellulose) (HPC) 106 % of control | [3] 113 % of control | [6] 106 % of control

CN(C)c1ccc(/C=C2\N=C(c3ccc([N+](=O)[O-])cc3)OC2=O)cc1
inactive: [1] 96 % of control | [4] 101 % of control | [7] 93 % of control
